Results published in US11912663B2, “Multi-targeted tyrosine kinase inhibitors and their pharmaceutical uses” (Shanghai AB PharmaTech Ltd., priority 2021, dated 2024).

How the values were obtained:
[1] = test system: pancreatic cancer cell line (BXPC3); assay: tumor cell proliferation inhibition (CTG), pancreatic cancer cell line; assay type: cell-based; settings: Homo sapiens, BXPC-3, 72 hours
[2] = test system: lung cancer cell line (A549); assay: tumor cell proliferation inhibition (CTG), lung cancer cell line; assay type: cell-based; settings: Homo sapiens, 72 hours
[3] = test system: kidney cancer cell line (Caki-1); assay: tumor cell proliferation inhibition (CTG), kidney cancer cell line; assay type: cell-based; settings: Homo sapiens, 72 hours, read-out: Caki-1 (renal cancer) IC50
[4] = test system: hepatocellular carcinoma cell line (Hep3B 2.1-7); assay: tumor cell proliferation inhibition (CTG), hepatocellular carcinoma cell line; assay type: cell-based; settings: Homo sapiens, 72 hours
[5] = test system: gastric cancer cell line (SNU16); assay: tumor cell proliferation inhibition (CTG), gastric cancer cell line; assay type: cell-based; settings: Homo sapiens, SNU-16, 72 hours, read-out: SUN16 IC50
[6] = test system: cervical cancer cell lines (Hela); assay: tumor cell proliferation inhibition (CTG), cervical cancer cell line; assay type: cell-based; settings: Homo sapiens, 72 hours
[7] = test system: leukemia cell line (K562); assay: tumor cell proliferation inhibition (CTG), leukemia cell line; assay type: cell-based; settings: Homo sapiens, 72 hours
prostatic cancer (PC-3) = assay: tumor cell proliferation inhibition (CTG), PC-3; assay type: cell-based; settings: 72 hours
VEGFR1 (FLT1) = VEGFR1 (FLT1) (Homo sapiens (Human), UniProt P17948); assay: kinase inhibition, Mobility-Shift Assay; assay type: biochemical; settings: 278 μM ATP
VEGFR1 (FLT1), sequence (P17948 27-1338): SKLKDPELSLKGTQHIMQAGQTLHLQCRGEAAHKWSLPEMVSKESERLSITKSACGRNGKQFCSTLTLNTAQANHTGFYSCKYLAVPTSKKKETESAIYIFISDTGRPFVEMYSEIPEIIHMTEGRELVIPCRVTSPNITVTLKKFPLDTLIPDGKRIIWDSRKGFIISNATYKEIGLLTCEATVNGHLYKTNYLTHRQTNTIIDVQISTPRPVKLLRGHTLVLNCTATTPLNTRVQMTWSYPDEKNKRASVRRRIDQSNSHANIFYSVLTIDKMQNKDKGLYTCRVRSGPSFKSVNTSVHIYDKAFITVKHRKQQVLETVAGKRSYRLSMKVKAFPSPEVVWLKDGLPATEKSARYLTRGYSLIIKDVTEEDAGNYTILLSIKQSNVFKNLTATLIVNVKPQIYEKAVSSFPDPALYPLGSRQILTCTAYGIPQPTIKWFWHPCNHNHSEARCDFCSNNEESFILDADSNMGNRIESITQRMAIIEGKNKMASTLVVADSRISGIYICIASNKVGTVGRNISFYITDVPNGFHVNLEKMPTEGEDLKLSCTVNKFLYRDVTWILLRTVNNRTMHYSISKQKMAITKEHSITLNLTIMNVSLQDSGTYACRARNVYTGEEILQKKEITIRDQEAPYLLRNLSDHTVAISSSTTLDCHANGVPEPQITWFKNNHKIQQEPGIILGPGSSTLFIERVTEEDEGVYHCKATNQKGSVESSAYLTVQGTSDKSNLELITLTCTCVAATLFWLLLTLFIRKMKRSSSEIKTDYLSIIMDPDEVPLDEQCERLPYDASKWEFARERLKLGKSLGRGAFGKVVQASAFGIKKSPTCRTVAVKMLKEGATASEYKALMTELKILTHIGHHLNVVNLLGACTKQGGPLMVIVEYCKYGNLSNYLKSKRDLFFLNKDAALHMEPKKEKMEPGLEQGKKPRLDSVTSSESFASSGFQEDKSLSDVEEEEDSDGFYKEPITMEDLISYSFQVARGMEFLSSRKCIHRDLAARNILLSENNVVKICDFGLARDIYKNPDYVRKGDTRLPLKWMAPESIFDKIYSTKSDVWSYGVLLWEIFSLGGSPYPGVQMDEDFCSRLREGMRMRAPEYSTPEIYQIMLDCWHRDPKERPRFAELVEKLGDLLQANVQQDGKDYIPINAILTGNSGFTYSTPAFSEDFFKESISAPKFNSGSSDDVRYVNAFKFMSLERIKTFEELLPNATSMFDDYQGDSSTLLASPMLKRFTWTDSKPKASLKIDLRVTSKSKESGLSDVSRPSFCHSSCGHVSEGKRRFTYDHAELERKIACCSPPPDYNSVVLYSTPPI

VEGFR2 (KDR) = VEGFR2 (KDR) (Homo sapiens (Human), UniProt P35968); assay: kinase inhibition, Mobility-Shift Assay; assay type: biochemical; settings: VEGFR2, 92 μM ATP
VEGFR2 (KDR), sequence (P35968 20-1356): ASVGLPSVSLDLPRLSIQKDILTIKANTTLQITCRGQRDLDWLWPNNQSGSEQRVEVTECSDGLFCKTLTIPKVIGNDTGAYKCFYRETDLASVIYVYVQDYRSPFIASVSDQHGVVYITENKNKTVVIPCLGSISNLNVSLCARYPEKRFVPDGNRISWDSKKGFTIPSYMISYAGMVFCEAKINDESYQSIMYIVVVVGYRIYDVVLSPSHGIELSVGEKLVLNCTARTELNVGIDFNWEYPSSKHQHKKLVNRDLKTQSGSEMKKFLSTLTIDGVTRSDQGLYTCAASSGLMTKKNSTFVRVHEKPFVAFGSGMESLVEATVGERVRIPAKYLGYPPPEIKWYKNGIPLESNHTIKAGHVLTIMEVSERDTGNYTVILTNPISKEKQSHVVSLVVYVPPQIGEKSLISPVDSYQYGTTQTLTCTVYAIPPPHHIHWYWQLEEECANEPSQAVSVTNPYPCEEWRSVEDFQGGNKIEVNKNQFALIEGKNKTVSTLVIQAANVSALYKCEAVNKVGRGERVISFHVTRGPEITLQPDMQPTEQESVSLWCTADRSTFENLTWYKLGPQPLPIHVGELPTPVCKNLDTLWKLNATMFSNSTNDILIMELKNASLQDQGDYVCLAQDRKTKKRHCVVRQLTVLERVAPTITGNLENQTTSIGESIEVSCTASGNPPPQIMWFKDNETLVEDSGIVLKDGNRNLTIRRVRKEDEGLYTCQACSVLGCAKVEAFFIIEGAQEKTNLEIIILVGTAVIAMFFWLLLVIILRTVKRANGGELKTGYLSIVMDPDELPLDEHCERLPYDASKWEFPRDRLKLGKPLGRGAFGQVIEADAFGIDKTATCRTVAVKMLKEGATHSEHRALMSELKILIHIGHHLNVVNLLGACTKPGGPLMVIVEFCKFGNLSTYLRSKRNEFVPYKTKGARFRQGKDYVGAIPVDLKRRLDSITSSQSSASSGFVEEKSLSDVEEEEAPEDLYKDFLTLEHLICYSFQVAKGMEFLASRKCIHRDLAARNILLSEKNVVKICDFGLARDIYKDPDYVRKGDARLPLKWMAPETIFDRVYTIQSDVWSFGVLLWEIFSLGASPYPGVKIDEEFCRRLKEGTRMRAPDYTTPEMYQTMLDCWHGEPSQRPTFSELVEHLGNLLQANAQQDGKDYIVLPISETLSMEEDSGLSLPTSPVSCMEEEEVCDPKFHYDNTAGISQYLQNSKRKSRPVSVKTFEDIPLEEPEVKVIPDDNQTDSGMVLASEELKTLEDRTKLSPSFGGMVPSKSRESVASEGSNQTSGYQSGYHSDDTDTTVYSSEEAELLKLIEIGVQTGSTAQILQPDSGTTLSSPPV

VEGFR3 (FLT4) = VEGFR3 (FLT4) (Homo sapiens (Human), UniProt P35916); assay: kinase inhibition, Mobility-Shift Assay; assay type: biochemical; settings: 84 μM ATP
VEGFR3 (FLT4), sequence (P35916 25-1363): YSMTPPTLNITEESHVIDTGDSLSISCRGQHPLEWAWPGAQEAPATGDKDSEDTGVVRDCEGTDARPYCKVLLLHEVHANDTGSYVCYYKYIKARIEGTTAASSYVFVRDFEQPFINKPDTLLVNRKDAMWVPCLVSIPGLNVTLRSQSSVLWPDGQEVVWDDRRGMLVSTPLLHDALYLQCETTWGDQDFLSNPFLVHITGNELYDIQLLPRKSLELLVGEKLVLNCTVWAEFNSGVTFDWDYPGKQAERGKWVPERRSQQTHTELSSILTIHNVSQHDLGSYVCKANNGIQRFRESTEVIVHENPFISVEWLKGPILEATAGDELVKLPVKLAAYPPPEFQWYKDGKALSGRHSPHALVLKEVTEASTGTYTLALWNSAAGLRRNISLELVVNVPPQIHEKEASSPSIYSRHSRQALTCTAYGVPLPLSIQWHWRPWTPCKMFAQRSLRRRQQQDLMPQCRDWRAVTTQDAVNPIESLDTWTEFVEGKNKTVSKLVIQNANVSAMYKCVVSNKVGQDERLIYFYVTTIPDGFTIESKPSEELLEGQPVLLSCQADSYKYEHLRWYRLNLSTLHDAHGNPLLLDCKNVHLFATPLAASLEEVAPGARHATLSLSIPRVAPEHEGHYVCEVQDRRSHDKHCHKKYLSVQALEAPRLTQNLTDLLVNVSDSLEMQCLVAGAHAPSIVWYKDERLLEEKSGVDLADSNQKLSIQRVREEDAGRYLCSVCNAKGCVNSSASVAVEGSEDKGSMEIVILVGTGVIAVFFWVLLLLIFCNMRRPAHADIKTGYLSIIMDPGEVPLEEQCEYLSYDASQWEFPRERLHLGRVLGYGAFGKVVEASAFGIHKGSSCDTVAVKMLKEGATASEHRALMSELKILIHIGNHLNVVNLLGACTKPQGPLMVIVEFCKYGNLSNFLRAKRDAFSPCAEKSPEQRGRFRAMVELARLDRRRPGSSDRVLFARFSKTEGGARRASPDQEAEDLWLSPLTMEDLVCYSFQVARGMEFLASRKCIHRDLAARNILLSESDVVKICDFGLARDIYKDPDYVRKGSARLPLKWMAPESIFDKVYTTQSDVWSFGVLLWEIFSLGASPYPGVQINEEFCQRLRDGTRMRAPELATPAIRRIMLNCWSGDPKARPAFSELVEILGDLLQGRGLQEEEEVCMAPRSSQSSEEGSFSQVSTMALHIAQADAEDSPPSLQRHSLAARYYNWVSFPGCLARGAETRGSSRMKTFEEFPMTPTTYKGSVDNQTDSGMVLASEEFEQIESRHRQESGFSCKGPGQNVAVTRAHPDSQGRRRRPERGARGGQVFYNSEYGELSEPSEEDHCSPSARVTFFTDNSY

FGFR2 = FGFR2 (Homo sapiens (Human), UniProt P21802); assay: kinase inhibition, Mobility-Shift Assay; assay type: biochemical; settings: 1.9 μM ATP
RET = RET (Homo sapiens (Human), UniProt P07949); assay: kinase inhibition, Mobility-Shift Assay; assay type: biochemical; settings: 23 μM ATP
hERG potassium channels = hERG potassium channels (Homo sapiens (Human), UniProt Q12809); assay: in vitro inhibitory effect of hERG, whole-cell patch clamp; assay type: cell-based; settings: whole-cell recording, room temperature
hERG potassium channels, sequence (Q12809 whole entry): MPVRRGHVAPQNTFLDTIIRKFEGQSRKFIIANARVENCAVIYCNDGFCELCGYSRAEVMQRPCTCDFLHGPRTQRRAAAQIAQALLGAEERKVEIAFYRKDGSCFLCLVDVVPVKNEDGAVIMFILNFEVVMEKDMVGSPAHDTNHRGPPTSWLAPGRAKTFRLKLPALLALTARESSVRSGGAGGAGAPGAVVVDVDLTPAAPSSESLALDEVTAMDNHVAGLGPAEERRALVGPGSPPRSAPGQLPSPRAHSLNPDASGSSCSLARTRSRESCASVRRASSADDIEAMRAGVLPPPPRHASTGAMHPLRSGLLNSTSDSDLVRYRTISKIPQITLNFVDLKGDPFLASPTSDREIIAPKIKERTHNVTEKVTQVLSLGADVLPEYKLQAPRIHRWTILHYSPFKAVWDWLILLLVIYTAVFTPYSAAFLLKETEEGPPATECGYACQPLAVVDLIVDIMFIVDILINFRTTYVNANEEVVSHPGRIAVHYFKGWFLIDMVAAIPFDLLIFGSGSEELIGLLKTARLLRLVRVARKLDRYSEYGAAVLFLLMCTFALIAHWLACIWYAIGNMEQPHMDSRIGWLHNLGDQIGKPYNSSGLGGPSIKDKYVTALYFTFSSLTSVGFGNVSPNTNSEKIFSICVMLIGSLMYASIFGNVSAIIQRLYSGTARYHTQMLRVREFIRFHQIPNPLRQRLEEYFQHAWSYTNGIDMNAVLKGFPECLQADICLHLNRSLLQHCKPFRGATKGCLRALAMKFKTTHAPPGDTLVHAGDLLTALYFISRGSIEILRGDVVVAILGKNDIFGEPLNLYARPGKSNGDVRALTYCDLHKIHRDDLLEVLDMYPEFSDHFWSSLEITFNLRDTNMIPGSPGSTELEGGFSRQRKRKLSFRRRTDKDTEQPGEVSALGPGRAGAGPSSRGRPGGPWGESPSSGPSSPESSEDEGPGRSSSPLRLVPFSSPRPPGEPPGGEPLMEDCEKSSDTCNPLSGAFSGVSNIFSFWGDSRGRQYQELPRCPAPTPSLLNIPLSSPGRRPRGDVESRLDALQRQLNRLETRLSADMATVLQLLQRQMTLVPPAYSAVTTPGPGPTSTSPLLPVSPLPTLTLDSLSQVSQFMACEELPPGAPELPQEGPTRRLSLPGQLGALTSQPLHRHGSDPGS

[8] = MTD toxicity test in rats; assay type: in vivo; settings: 150 mg/kg; for MTD toxicity test, clinical outcome: rat, in vivo; for autopsy results of organs: rats, QD, 14 days, heart, liver, lungs, kidneys, stomach, intestines and other organs
[9] = test system: BXPC3, SNU16, Hep3B 2.1-7 subcutaneous tumors; assay: tumor suppression in nude mice with subcutaneously transplanted tumors; assay type: in vivo; settings: BXPC3, SNU16, Hep3B 2.1-7 transplants, within 3-4 weeks
Source text: These preferred compounds (e.g., IIIb-08, IIIb-09, IIIb-45, IIIb-50, IIIb-55, IIIb-56, IIIb-57, IIIb-58, IIIb-60, IIIb-61, IIIb-65) are currently being used to […] in nude mice subcutaneously transplanted with pancreatic cancer cell line (BXPC3), gastric cancer cell line (SNU16), liver cancer cell line (Hep3B 2.1-7) and other tumor suppressive effects have been observed in vivo, the tumor suppression rate of subcutaneous tumors in nude mice could reach 80-110% within 3-4 weeks. […] Therefore, the preferred compounds “IIIb-08, IIIb-09, IIIb-45, IIIb-50, IIIb-55, IIIb-56, IIIb-57, IIIb-58, IIIb-60, IIIb-61, IIIb-65” designed and synthesized by the present invention not only have better inhibitory activity, but also have better safety and drug-forming properties, which are valuable for further preclinical studies such as pharmacotoxicology and clinical trials.

## COc1cc2nccc(Oc3c(F)cc(NC(=O)NC4CC4)c(Cl)c3F)c2cc1C(=O)NCC(F)F [IIIb-08]
[1]
  IC50: < 5000 nM
[2]
  IC50: < 2500 nM
[3]
  IC50: < 2500 nM
[4]
  IC50: < 2500 nM
[5]
  IC50: < 5000 nM
[6]
  IC50: < 5000 nM
[7]
  IC50: < 5000 nM
Prostatic cancer (PC-3)
  IC50: 5000 to 10000 nM
VEGFR1 (FLT1)
  IC50: < 5 nM
VEGFR2 (KDR)
  IC50: < 5 nM
VEGFR3 (FLT4)
  IC50: < 5 nM
FGFR2
  IC50: < 50 nM
RET
  IC50: < 5 nM
hERG potassium channels
  IC50: > 30000 nM
[8]
  MTD toxicity test, clinical outcome: no abnormalities such as death
  autopsy results of organs: did not reveal any abnormal changes
[9]
  tumor suppression rate of subcutaneous tumors: 80-110%

## COc1cc2nccc(Oc3c(F)cc(NC(=O)NC4CC4)c(Cl)c3F)c2cc1C(=O)NCC(F)(F)F [IIIb-09]
[1]
  IC50: < 5000 nM
[2]
  IC50: < 2500 nM
[3]
  IC50: < 2500 nM
[4]
  IC50: < 2500 nM
[5]
  IC50: < 5000 nM
[6]
  IC50: < 5000 nM
[7]
  IC50: < 5000 nM
Prostatic cancer (PC-3)
  IC50: > 10000 nM
VEGFR1 (FLT1)
  IC50: 5 to 10 nM
VEGFR2 (KDR)
  IC50: < 5 nM
VEGFR3 (FLT4)
  IC50: < 5 nM
FGFR2
  IC50: 50 to 100 nM
RET
  IC50: 5 to 10 nM
hERG potassium channels
  IC50: > 30000 nM
[8]
  MTD toxicity test, clinical outcome: no abnormalities such as death
  autopsy results of organs: did not reveal any abnormal changes
[9]
  tumor suppression rate of subcutaneous tumors: 80-110%

## COc1cc2nccc(Oc3c(F)cc(NC(=O)NC4CC4)c(Cl)c3F)c2cc1C(=O)NCC#N [IIIb-45]
[1]
  IC50: < 5000 nM
[2]
  IC50: < 2500 nM
[3]
  IC50: < 2500 nM
[4]
  IC50: < 2500 nM
[5]
  IC50: < 5000 nM
[6]
  IC50: < 5000 nM
[7]
  IC50: < 5000 nM
Prostatic cancer (PC-3)
  IC50: 5000 to 10000 nM
VEGFR1 (FLT1)
  IC50: < 5 nM
VEGFR2 (KDR)
  IC50: < 5 nM
VEGFR3 (FLT4)
  IC50: < 5 nM
FGFR2
  IC50: < 50 nM
RET
  IC50: < 5 nM
hERG potassium channels
  IC50: > 30000 nM
[8]
  MTD toxicity test, clinical outcome: no abnormalities such as death
  autopsy results of organs: did not reveal any abnormal changes
[9]
  tumor suppression rate of subcutaneous tumors: 80-110%

## COc1cc2nccc(Oc3c(F)cc(NC(=O)NC4CC4)c(Cl)c3F)c2cc1C(=O)NCCC#N [IIIb-50]
[1]
  IC50: < 5000 nM
[2]
  IC50: < 2500 nM
[3]
  IC50: < 2500 nM
[4]
  IC50: < 2500 nM
[5]
  IC50: < 5000 nM
[6]
  IC50: < 5000 nM
[7]
  IC50: < 5000 nM
Prostatic cancer (PC-3)
  IC50: 5000 to 10000 nM
VEGFR1 (FLT1)
  IC50: < 5 nM
VEGFR2 (KDR)
  IC50: < 5 nM
VEGFR3 (FLT4)
  IC50: < 5 nM
FGFR2
  IC50: < 50 nM
RET
  IC50: < 5 nM
hERG potassium channels
  IC50: > 30000 nM
[8]
  MTD toxicity test, clinical outcome: no abnormalities such as death
  autopsy results of organs: did not reveal any abnormal changes
[9]
  tumor suppression rate of subcutaneous tumors: 80-110%

## NC(=O)c1cc2c(Oc3c(F)cc(NC(=O)NC4CC4)c(Cl)c3F)ccnc2cc1OCCF [IIIb-55]
[1]
  IC50: < 5000 nM
[2]
  IC50: < 2500 nM
[3]
  IC50: < 2500 nM
[4]
  IC50: < 2500 nM
[5]
  IC50: < 5000 nM
[6]
  IC50: < 5000 nM
[7]
  IC50: < 5000 nM
Prostatic cancer (PC-3)
  IC50: 5000 to 10000 nM
VEGFR1 (FLT1)
  IC50: < 5 nM
VEGFR2 (KDR)
  IC50: < 5 nM
VEGFR3 (FLT4)
  IC50: < 5 nM
FGFR2
  IC50: < 50 nM
RET
  IC50: 5 to 10 nM
hERG potassium channels
  IC50: > 30000 nM
[8]
  MTD toxicity test, clinical outcome: no abnormalities such as death
  autopsy results of organs: did not reveal any abnormal changes
[9]
  tumor suppression rate of subcutaneous tumors: 80-110%

## NC(=O)c1cc2c(Oc3c(F)cc(NC(=O)NC4CC4)c(Cl)c3F)ccnc2cc1OCC(F)F [IIIb-56]
[1]
  IC50: < 5000 nM
[2]
  IC50: < 2500 nM
[3]
  IC50: < 2500 nM
[4]
  IC50: < 2500 nM
[5]
  IC50: < 5000 nM
[6]
  IC50: < 5000 nM
[7]
  IC50: < 5000 nM
Prostatic cancer (PC-3)
  IC50: 5000 to 10000 nM
VEGFR1 (FLT1)
  IC50: < 5 nM
VEGFR2 (KDR)
  IC50: < 5 nM
VEGFR3 (FLT4)
  IC50: < 5 nM
FGFR2
  IC50: < 50 nM
RET
  IC50: < 5 nM
hERG potassium channels
  IC50: > 30000 nM
[8]
  MTD toxicity test, clinical outcome: no abnormalities such as death
  autopsy results of organs: did not reveal any abnormal changes
[9]
  tumor suppression rate of subcutaneous tumors: 80-110%
